Source: patent US7994156B2 (priority 2007, dated 2011)

Legend:
[1] = biological target: T1, serotonine (5-HT) reuptake in synaptosomes (Rattus norvegicus, UniProt P31652); experiment: Inhibition of 5-HT reuptake in synaptosomes; format: biochemical; details: 3H-5-HT, read-out: 5-HT-uptake IC50
T1 construct: serotonine (5-HT) in synaptosomes as described in WO 97/16451; from tissue
Procedure: (§1) A compound of the invention was tested for its ability to inhibit the reuptake of the monoamine neurotransmitters dopamine (DA) noradrenaline (NA) and serotonine (5-HT) in synaptosomes as described in WO 97/16451.
(§2) The test values are given as IC50 (the concentration (μM) of the test substance which inhibits the specific binding of ^3H-DA, ^3H-NA, or ^3H-5-HT by 50%).

[2] = biological target: T2, dopamine (DA) reuptake in synaptosomes (Rattus norvegicus, UniProt P23977); experiment: Inhibition of DA reuptake in synaptosomes; format: biochemical; details: 3H-DA, read-out: DA-uptake IC50
T2 construct: in synaptosomes as described in WO 97/16451; from tissue
Procedure: as §1, §2

[3] = biological target: T3, α7-subtype of nicotinic receptors (Rattus norvegicus, UniProt Q05941); experiment: biochemical; format: binding
T3 construct: Cerebral cortices from male Wistar rats (150-250 g) are homogenised; from tissue; host or cells: cerebral cortex of male Wistar rats, washed membrane pellet
T3 sequence (Q05941 23-502): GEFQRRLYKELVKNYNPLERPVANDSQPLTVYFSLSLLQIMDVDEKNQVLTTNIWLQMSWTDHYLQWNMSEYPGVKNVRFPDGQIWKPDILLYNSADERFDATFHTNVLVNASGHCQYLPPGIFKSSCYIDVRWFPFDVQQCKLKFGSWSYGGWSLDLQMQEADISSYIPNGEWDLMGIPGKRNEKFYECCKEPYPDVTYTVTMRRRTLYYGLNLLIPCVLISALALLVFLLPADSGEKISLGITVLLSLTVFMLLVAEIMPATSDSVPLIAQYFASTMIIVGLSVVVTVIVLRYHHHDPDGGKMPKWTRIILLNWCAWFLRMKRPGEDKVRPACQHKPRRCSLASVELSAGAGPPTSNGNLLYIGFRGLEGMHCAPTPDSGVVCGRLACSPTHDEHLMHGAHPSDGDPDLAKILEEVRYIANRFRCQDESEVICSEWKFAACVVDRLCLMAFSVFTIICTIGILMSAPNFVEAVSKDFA

T2 sequence (P23977 whole entry): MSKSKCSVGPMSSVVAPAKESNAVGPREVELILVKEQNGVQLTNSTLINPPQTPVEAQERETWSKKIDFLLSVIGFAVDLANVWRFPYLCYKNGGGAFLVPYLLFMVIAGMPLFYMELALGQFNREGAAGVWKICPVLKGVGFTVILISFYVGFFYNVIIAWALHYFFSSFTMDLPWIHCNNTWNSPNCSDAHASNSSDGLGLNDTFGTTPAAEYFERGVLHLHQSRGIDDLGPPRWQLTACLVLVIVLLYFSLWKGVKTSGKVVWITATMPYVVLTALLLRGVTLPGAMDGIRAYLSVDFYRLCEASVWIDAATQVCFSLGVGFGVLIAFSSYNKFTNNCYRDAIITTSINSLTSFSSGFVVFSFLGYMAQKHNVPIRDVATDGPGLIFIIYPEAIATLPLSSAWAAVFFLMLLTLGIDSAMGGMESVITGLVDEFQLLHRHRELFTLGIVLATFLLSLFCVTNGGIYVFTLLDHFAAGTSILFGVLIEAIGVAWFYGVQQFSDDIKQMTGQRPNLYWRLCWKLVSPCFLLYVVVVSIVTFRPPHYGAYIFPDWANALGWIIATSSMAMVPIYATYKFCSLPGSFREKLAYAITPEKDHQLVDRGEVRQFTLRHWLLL
T1 sequence (P31652 whole entry): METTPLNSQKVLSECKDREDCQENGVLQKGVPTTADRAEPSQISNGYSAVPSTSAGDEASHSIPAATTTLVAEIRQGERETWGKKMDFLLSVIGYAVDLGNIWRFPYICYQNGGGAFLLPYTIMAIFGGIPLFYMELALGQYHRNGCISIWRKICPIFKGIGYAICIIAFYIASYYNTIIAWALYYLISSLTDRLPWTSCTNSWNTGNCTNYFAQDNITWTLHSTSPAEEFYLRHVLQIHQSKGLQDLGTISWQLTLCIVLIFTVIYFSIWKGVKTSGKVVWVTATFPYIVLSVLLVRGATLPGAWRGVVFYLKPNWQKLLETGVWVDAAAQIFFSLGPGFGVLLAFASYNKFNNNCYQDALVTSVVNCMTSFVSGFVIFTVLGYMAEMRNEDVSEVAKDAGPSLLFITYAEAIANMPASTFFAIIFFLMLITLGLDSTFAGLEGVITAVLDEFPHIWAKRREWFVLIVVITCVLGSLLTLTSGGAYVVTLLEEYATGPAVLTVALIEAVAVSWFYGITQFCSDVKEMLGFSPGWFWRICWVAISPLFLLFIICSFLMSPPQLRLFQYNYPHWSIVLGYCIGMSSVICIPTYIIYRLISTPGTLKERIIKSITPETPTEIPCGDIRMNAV

O=C(Oc1ccc(N=Nc2ccccc2)cc1)N1CCN2CCC1CC2 [1,4-Diaza-bicyclo[3.2.2]nonane-4-carboxylic acid 4-phenylazo-phenyl ester]
IC50 [1]: 13000 nM
IC50 [2]: 32 nM
IC50 [3]: 1600 nM
